Measured values reported in patent publication US11919965B2, “Methods of treating multiple myeloma with bispecific anti-BCMA x anti-CD3 antibodies” (Regeneron Pharmaceuticals, Inc., priority 2019, dated 2024).

How the values were obtained:
[1] = test system: surface BCMA on MM1S cells; assay: FACS surface BCMA after overnight incubation with anti-BCMA antibodies or DAPT; format: cell-based, human; conditions: stained with the anti-BCMA antibody
Experimental: (§1) Flow cytometric analysis was utilized to determine the impact of overnight incubation of multiple myeloma cell lines with anti-BCMA antibodies on the level of surface BCMA. […] After 18 hours, wells were washed with cold FACS wash (PBS+1% filtered FBS) and resuspended in 667 nM of the same anti-BCMA antibody in cold stain buffer (Miltenyi 130-091-221) for 30 minutes on ice. After incubation, the cells were washed twice with cold FACS wash (PBS+1% filtered FBS) and bound antibody was detected by incubating with the appropriate anti-human secondary antibody (anti-hlgG or anti-HIS) on ice for an additional 30-45 minutes. After incubation, cells were washed, re-suspended in 200 μL cold PBS containing 1% filtered FBS and analyzed by flow cytometry on a BD FACS Canto II. Fold increase in staining was calculated by dividing the MFI of stained cells previously incubated overnight in BCMA abs or DAPT by the MFI of stained cells that were incubated overnight in media only.

[2] = test system: surface BCMA on Molp8 cells; assay: as above; format: cell-based, human
Experimental: as §1

[3] = test system: surface BCMA on NCI-H929 cells; assay: as above; format: cell-based, human
Experimental: as §1

[4] = test system: surface BCMA on U266 cells; assay: as above; format: cell-based, human
Experimental: as §1

MC38/BCMA tumors [5] = assay: Syngenic MC38/BCMA tumor model in CD3-humanized mice, combination with anti-PD-1 (Example 20); format: in vivo, mouse; conditions: for Average Tumor Size (mm3) ± SEM on Day 3 / Average Tumor Size (mm3) ± SEM on Day 7 / Average Tumor Size (mm3) ± SEM on Day 11 / Average Tumor Size (mm3) ± SEM on Day 14 / Average Tumor Size (mm3) ± SEM on Day 18 / Average Tumor Size (mm3) ± SEM on Day 21 / Average Tumor Size (mm3) ± SEM on Day 24 / Average Tumor Size (mm3) ± SEM on Day 28: doses on days 3, 7, 11
Experimental: (§2) Implantation and measurement of syngenic tumors: C57BL/6 mice that express human CD3deg in place of murine CD3deg (CD3-humanized mice) were subcutaneously implanted with 1×10^6 MC38 colon carcinoma cells that have been engineered to express full-length human BCMA (MC38/BCMA).
(§3) The mice were administered these Abs twice more on days 7 and 11 for a total of three doses, and tumor growth was assessed throughout the experiment.
(§4) Calculation of syngenic tumor growth and inhibition: In order to determine tumor volume by external caliper, the greatest longitudinal diameter (length in mm) and the greatest transverse diameter (width in mm) were determined. Tumor volumes based on caliper measurements were calculated by the formula: Volume (mm^3)=(length× width^2)/2.

MC38/BCMA tumors [6] = assay: Syngenic MC38/BCMA tumor model in CD3-humanized mice, combination with anti-PD-1, second experiment (Example 21); format: in vivo, mouse
Experimental: as §2, §3, §4

human BCMA-MFC = target: T1, human BCMA-MFC (Homo sapiens, UniProt Q02223); assay: SPR (Biacore 4000) binding kinetics at 25° C.
T1 construct: extracellular domain of human BCMA expressed with C-terminal mFc tag (human BCMA-MFC)
Experimental: (§5) The CM5 Biacore sensor surface was derivatized by amine coupling with a monoclonal mouse anti-human Fc antibody (GE, #BR-1008-39) to capture purified anti-BCMA mAbs and anti-BCMA×anti-CD3 bispecific mAbs. All Biacore binding studies were performed in a buffer composed of 0.01M HEPES pH 7.4, 0.15M NaCl, 3 mM EDTA, 0.05% v/v Surfactant P20 (HBS-ET running buffer). […] Antigen samples were then injected over the anti-BCMA and anti-BCMA×anti-CD3 bispecific mAbs captured surfaces at a flow rate of 30 μL/minute. Antibody-reagent association was monitored for 5 minutes while dissociation in HBS-ET running buffer was monitored for 10 minutes. All of the binding kinetics experiments were performed at 25° C. Kinetic association (ka) and dissociation (kd) rate constants were determined by fitting the real-time sensorgrams to a 1:1 binding model using Scrubber 2.0c curve fitting software. Binding dissociation equilibrium constants (KD) and dissociative half-lives (t1/2) were calculated from the kinetic rate constants as: […]

human BCMA-MMH = target: T2, human BCMA-MMH (Homo sapiens, UniProt Q02223); assay: SPR (Biacore 4000) binding kinetics at 25° C.
T2 construct: extracellular domain of human BCMA expressed with C-terminal myc-myc-hexahistidine tag (human BCMA-MMH)
Experimental: as §5

monkey BCMA-MFC = assay: SPR (Biacore 4000) binding kinetics at 25° C.
Experimental: as §5

mouse BCMA-MFC = target: T3, mouse BCMA-MFC (Mus musculus, UniProt O88472); assay: SPR (Biacore 4000) binding kinetics at 25° C.
T3 construct: 30 nM BCMA expressed with C-terminal mFc tag (mouse BCMA-MFC)
Experimental: as §5

monkey BCMA-MMH = assay: SPR (Biacore 4000) binding kinetics at 25° C.; conditions: for 90 nM mfBCMA.mmh Bind (RU): antibody captured on anti-human Fc
Experimental: as §5

[7] = bispecific 0.04 mg/kg + second antibody 4 mg/kg
[8] = bispecific 0.24 mg/kg + second antibody 4 mg/kg
[9] = bispecific 0.04 mg/kg + partner antibody 4 mg/kg
[10] = bispecific 0.4 mg/kg + second antibody 4 mg/kg

T3 sequence (O88472 with tags, fused parts or gaps): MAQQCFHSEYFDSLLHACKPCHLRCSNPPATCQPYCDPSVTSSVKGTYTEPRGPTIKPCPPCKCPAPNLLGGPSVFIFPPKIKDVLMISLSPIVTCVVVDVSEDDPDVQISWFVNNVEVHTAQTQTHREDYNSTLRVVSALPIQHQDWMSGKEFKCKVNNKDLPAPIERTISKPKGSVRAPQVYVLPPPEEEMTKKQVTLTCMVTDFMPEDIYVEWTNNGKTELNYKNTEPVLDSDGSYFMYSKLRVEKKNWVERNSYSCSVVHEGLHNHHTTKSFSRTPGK
Chain of monkey BCMA-MFC (as listed by the source): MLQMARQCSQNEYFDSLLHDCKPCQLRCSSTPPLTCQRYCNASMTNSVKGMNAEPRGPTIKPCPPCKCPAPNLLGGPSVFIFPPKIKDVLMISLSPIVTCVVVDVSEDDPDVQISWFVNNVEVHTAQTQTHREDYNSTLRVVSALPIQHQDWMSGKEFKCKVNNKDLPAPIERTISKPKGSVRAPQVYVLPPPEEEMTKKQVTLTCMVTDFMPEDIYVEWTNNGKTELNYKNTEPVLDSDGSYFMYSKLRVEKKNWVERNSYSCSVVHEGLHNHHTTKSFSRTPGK
Chain of monkey BCMA-MMH (as listed by the source): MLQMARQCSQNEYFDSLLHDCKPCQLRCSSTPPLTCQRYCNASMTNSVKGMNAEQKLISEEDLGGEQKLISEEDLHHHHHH
T2 sequence (Q02223 with tags, fused parts or gaps): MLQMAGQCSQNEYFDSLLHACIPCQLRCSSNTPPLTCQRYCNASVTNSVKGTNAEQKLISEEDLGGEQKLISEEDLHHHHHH
T1 sequence (Q02223 with tags, fused parts or gaps): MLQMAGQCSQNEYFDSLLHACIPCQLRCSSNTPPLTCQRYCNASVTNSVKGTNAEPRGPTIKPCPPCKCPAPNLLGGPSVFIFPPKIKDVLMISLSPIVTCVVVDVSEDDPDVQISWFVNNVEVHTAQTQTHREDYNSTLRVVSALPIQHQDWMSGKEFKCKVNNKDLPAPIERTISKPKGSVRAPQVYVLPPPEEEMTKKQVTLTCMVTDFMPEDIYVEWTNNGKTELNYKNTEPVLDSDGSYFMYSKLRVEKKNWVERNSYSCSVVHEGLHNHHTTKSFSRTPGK

C[C@H](NC(=O)Cc1cc(F)cc(F)c1)C(=O)N[C@H](C(=O)OC(C)(C)C)c1ccccc1 [DAPT]
MFI fold change over cells incubated in media only, Average [1]: 11.9 fold
fold increase of BCMA levels after overnight DAPT, range over detecting antibodies [2]: 2.4-8.6 fold
fold increase of BCMA levels after overnight DAPT, range over detecting antibodies [3]: 2.3-4 fold
fold increase of BCMA levels after overnight DAPT, range over detecting antibodies [4]: 5.3-9.0 fold

REGN5458 + Isotype: combination of REGN5458 with isotype control Ab (Clone 2A3)
Average Tumor Size (mm3) ± SEM on Day 3 (MC38/BCMA tumors [5]; [7]): 15.62 ± 1.61 mm3
Average Tumor Size (mm3) ± SEM on Day 3 (MC38/BCMA tumors [5]; [8]): 13.13 ± 3.12 mm3
Average Tumor Size (mm3) ± SEM on Day 7 (MC38/BCMA tumors [5]; [7]): 37.98 ± 3.93 mm3
Average Tumor Size (mm3) ± SEM on Day 7 (MC38/BCMA tumors [5]; [8]): 29.27 ± 5.00 mm3
Average Tumor Size (mm3) ± SEM on Day 11 (MC38/BCMA tumors [5]; [7]): 112.53 ± 17.39 mm3
Average Tumor Size (mm3) ± SEM on Day 11 (MC38/BCMA tumors [5]; [8]): 36.63 ± 14.89 mm3
Average Tumor Size (mm3) ± SEM on Day 14 (MC38/BCMA tumors [5]; [7]): 438.16 ± 59.56 mm3
Average Tumor Size (mm3) ± SEM on Day 14 (MC38/BCMA tumors [5]; [8]): 224.33 ± 47.04 mm3
Average Tumor Size (mm3) ± SEM on Day 18 (MC38/BCMA tumors [5]; [7]): 1040.12 ± 61.95 mm3
Average Tumor Size (mm3) ± SEM on Day 18 (MC38/BCMA tumors [5]; [8]): 515.15 ± 115.38 mm3
Average Tumor Size (mm3) ± SEM on Day 21 (MC38/BCMA tumors [5]; [7]): 2133.12 ± 129.26 mm3
Average Tumor Size (mm3) ± SEM on Day 21 (MC38/BCMA tumors [5]; [8]): 1225.47 ± 289.39 mm3
Average Tumor Size (mm3) ± SEM on Day 24 (MC38/BCMA tumors [5]; [7]): 3648.37 ± 536.71 mm3
Average Tumor Size (mm3) ± SEM on Day 24 (MC38/BCMA tumors [5]; [8]): 1493.26 ± 973.01 mm3
Average Tumor Size (mm3) ± SEM on Day 28 (MC38/BCMA tumors [5]; [7]): All Animals Euthanized
Average Tumor Size (mm3) ± SEM on Day 28 (MC38/BCMA tumors [5]; [8]): 1371.17 ± 0.00 mm3
Number of Mice Tumor-Free at End of Experiment (Day 28) (MC38/BCMA tumors [5]; [9]): 0 of 7
Number of Mice Tumor-Free at End of Experiment (Day 28) (MC38/BCMA tumors [5]; bispecific 0.24 mg/kg + partner antibody 4 mg/kg): 0 of 6
Average Tumor Size (mm3) ± SEM on Day 3 (MC38/BCMA tumors [6]; [7]): 12.41 ± 2.56 mm3
Average Tumor Size (mm3) ± SEM on Day 3 (MC38/BCMA tumors [6]; [10]): 11.22 ± 0.68 mm3
Average Tumor Size (mm3) ± SEM on Day 6 (MC38/BCMA tumors [6]; [7]): 38.79 ± 3.52 mm3
Average Tumor Size (mm3) ± SEM on Day 6 (MC38/BCMA tumors [6]; [10]): 16.11 ± 1.27 mm3
Average Tumor Size (mm3) ± SEM on Day 10 (MC38/BCMA tumors [6]; [7]): 116.32 ± 19.99 mm3
Average Tumor Size (mm3) ± SEM on Day 10 (MC38/BCMA tumors [6]; [10]): 24.27 ± 6.74 mm3
Average Tumor Size (mm3) ± SEM on Day 13 (MC38/BCMA tumors [6]; [7]): 319.91 ± 53.05 mm3
Average Tumor Size (mm3) ± SEM on Day 13 (MC38/BCMA tumors [6]; [10]): 50.93 ± 20.00 mm3
Average Tumor Size (mm3) ± SEM on Day 18 (MC38/BCMA tumors [6]; [7]): 1314.27 ± 211.22 mm3
Average Tumor Size (mm3) ± SEM on Day 18 (MC38/BCMA tumors [6]; [10]): 248.51 ± 107.21 mm3
Average Tumor Size (mm3) ± SEM on Day 21 (MC38/BCMA tumors [6]; [7]): 2446.35 ± 395.48 mm3
Average Tumor Size (mm3) ± SEM on Day 21 (MC38/BCMA tumors [6]; [10]): 453.43 ± 174.75 mm3
Average Tumor Size (mm3) ± SEM on Day 25 (MC38/BCMA tumors [6]; [7]): 2411.64 ± 451.96 mm3
Average Tumor Size (mm3) ± SEM on Day 25 (MC38/BCMA tumors [6]; [10]): 661.70 ± 331.60 mm3
Number of Mice Tumor-Free at End of Experiment (Day 25) (MC38/BCMA tumors [6]; [9]): 0 of 10
Number of Mice Tumor-Free at End of Experiment (Day 25) (MC38/BCMA tumors [6]; bispecific 0.4 mg/kg + partner antibody 4 mg/kg): 2 of 10

B1: mAb16711: anti-BCMA antibody, HCVR/LCVR SEQ ID NOs 2/10 (antibody, V domains shown)
VH: QVQLVESGGGVVQPGRSLRLSCAASGFTFSTYGIHWVRQAPGKGLEWVAVILHDGSSNYYAESVKGRFIISRDNSKNTLYLQMNSLRAEDTALYYCTKRYSEAAGPNWFDPWGQGTLVTVSS
VL: DIQMTQSPSSVSASVGDRVTITCRASRGISSWLAWYQQKPGKAPKLLIHAASSLQSGVPSRFSGSGSGTDFTLTISSLQPEDFATYYCQQAISFPFTFGPGTKVDIK
ka (human BCMA-MFC): 1.85e+06 M⁻¹ s⁻¹
kd (human BCMA-MFC): 0.00019 s⁻¹
ka (human BCMA-MMH): 2.01e+06 M⁻¹ s⁻¹
kd (human BCMA-MMH): 0.00347 s⁻¹
Kd (monkey BCMA-MFC): > 30 nM
ka (mouse BCMA-MFC): 1.07e+06 M⁻¹ s⁻¹
kd (mouse BCMA-MFC): 0.0011 s⁻¹

B2: REGN4514: anti-BCMA antibody, HCVR/LCVR SEQ ID NOs 34/42 (antibody, V domains shown)
VH: EVQLVESGGGLVQPGRSLRLSCAASGFTFDDYAMHWVRQAPGKGLEWVSGISWNSGNMGYADSVKGRFTISRDNAKNSLFLQMHSLRAEDTAFYYCAKVRLTAFDFWGQGTLVTVSS
VL: DIQMTQSPSSLSASVGDRVTITCRTSQSIGNYLNWFQQKPGKAPKLLIYTASSLQNGVPSRFTGSGSGTDFTLTISSLQPEDFVIYYCQQSFSTPYTFGQGTKLEIK
ka (human BCMA-MFC): 1.07e+06 M⁻¹ s⁻¹
kd (human BCMA-MFC): 4.53e-05 s⁻¹
ka (human BCMA-MMH): 1.06e+06 M⁻¹ s⁻¹
kd (human BCMA-MMH): 0.00285 s⁻¹
ka (monkey BCMA-MFC): 492000 M⁻¹ s⁻¹
kd (monkey BCMA-MFC): 0.00724 s⁻¹
Kd (monkey BCMA-MMH): > 90 nM
90 nM mfBCMA.mmh Bind (RU) (monkey BCMA-MMH): 1.1 RU
ka (mouse BCMA-MFC): 397000 M⁻¹ s⁻¹
kd (mouse BCMA-MFC): 0.000269 s⁻¹

B3: REGN4515: anti-BCMA antibody, HCVR/LCVR SEQ ID NOs 50/58 (antibody, V domains shown)
VH: QVQLVESGGGLVKPGGSLRLSCAASGFTFSDYYISWIRQAPGKGLEWVSYISSSGSSIKYADSVKGRFTISRDNAKNSLYLQMNSLRAEDTAVYYCAREGGNYGMDVWGQGTTVTVSS
VL: DIQMTQSPSSVSASVGDRVTITCRASQGINNWLVWYQQKPGKAPKLLIYAATSLQSGVPSRFSGSGSGTDFTLTISSLQPEDFATYYCQQANSFPPTFGQGTKLEIK
ka (human BCMA-MFC): 1.41e+06 M⁻¹ s⁻¹
kd (human BCMA-MFC): 8.95e-05 s⁻¹
ka (human BCMA-MMH): 869000 M⁻¹ s⁻¹
kd (human BCMA-MMH): 0.00247 s⁻¹
ka (monkey BCMA-MFC): 2.13e+06 M⁻¹ s⁻¹
kd (monkey BCMA-MFC): 0.00716 s⁻¹
Kd (monkey BCMA-MMH): > 90 nM
90 nM mfBCMA.mmh Bind (RU) (monkey BCMA-MMH): 1.9 RU
ka (mouse BCMA-MFC): 947000 M⁻¹ s⁻¹
kd (mouse BCMA-MFC): 0.00418 s⁻¹
